Active and inactive are the calls of the source. No cut-off for these calls is given here.
What follows are compounds tested against T1, P2X purinoceptor 3 (Rattus norvegicus) (UniProt P49654) (assay: Antagonist activity against rat P2X3 receptor expressed in CHOK1 cells assessed as inhibition of alpha,beta-meATP-induced calcium response incubated for 20 mins by Fluo-3AM dye based FLIPR assay). Conditions: CHO-K1.
T1 sequence (whole entry): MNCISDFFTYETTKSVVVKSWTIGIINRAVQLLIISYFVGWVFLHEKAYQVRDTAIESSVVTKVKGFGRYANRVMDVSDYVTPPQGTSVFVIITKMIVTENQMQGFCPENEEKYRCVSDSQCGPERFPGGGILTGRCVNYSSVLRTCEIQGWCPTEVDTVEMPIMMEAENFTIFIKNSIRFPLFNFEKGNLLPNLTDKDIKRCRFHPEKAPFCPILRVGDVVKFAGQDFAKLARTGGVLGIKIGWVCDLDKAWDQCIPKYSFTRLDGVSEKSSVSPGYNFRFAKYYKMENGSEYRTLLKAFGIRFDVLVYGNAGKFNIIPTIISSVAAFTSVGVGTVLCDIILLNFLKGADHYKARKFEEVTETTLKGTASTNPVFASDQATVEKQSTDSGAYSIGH
Type: functional, cell-based

inhibition | SMILES
Active | Cc1cccc2cc(Oc3cnc(N)nc3N)c(C(C)C)cc12
Active | CC(C)c1cc2cccnc2cc1Oc1cnc(N)nc1N
Active | Cc1nccc2cc(Oc3cnc(N)nc3N)c(C(C)C)cc12
Active | COc1ccc2cc(Oc3cnc(N)nc3N)c(C(C)C)cc2c1
Active | CC(C)c1nc2ccccc2cc1Oc1cnc(N)nc1N
Active | CC(C)c1cc2ncccc2cc1Oc1cnc(NC(CO)CO)nc1N
Active | Nc1ncc(Oc2cc3ccccc3cc2I)c(N)n1
Active | Cc1cccc2cc(Oc3cnc(N)nc3N)c(C(C)C)nc12
Active | Cc1cccc2cc(C(C)C)c(Oc3cnc(N)nc3N)cc12
Active | Cc1ccc2nc(C(C)C)c(Oc3cnc(N)nc3N)cc2c1

Source: ChEMBL document CHEMBL3714710, “Diaminopyrimidines as P2X3 and P2X2/3 modulators” (2010)
